Reference: article doi:10.1101/2023.11.24.568596v1 (biorxiv, 2023)

Key:
Conditions in all cases: binder
[1] = biological target: FLT1 (Homo sapiens, UniProt P17948)
[2] = biological target: LOK (Homo sapiens, UniProt O94804)
[3] = biological target: DYRK1A (Homo sapiens, UniProt Q13627)
[4] = biological target: T1, NEK2 (Homo sapiens, UniProt P51955)
T1 sequence (P51955 1-445): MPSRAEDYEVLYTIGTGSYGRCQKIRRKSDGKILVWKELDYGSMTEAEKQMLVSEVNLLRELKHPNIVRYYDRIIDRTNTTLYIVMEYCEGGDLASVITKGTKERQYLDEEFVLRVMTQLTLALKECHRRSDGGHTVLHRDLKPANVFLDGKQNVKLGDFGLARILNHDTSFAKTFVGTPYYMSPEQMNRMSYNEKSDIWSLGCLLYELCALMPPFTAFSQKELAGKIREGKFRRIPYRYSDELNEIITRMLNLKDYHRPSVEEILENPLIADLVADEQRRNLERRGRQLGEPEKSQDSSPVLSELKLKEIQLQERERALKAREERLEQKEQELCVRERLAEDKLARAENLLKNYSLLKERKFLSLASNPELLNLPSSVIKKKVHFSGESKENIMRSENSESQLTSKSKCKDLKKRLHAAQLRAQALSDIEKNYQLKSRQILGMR

[5] = biological target: T2, NQO2A (Homo sapiens, UniProt P16083)
T2 sequence (P16083 1-231): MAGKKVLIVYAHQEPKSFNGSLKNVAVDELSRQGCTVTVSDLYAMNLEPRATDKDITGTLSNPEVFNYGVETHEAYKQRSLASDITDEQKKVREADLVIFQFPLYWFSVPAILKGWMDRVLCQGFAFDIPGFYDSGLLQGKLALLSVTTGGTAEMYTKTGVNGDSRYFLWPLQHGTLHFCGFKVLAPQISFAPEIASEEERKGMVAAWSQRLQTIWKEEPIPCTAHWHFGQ

[6] = biological target: EphA7 (Homo sapiens, UniProt Q15375)
[7] = biological target: CLK3 (Homo sapiens, UniProt P49761)
[8] = biological target: NEK7 (Homo sapiens, UniProt Q8TDX7)
[9] = biological target: T3, DRAK2 (Homo sapiens, UniProt O94768)
T3 sequence (O94768 1-372): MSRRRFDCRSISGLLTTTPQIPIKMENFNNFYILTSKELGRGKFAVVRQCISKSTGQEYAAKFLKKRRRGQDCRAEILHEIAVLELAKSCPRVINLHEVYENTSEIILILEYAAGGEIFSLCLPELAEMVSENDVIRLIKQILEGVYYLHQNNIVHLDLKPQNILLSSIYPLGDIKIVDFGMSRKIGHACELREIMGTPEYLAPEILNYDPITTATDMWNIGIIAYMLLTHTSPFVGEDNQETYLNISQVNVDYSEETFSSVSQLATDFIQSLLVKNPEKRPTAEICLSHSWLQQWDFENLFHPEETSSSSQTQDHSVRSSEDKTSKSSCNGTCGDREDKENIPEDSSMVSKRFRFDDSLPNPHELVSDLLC

[10] = biological target: EphA5 (Homo sapiens, UniProt P54756)
[11] = biological target: MRCKa (Homo sapiens, UniProt Q5VT25)
[12] = biological target: CaMK1g (Homo sapiens, UniProt Q96NX5)
[13] = biological target: T4, PHKG2 (Homo sapiens, UniProt P15735)
T4 sequence (P15735 1-406): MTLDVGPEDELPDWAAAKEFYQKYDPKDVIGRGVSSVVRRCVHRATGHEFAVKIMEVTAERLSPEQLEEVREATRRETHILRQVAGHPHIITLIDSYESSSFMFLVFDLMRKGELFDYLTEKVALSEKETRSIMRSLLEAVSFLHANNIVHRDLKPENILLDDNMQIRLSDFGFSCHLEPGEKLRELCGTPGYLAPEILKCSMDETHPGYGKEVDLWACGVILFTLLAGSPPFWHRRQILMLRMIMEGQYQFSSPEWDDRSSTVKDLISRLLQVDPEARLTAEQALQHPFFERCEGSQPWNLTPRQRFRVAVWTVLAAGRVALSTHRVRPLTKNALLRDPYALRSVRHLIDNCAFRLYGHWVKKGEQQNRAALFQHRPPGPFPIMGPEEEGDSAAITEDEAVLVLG

[14] = biological target: CHK2 (Homo sapiens, UniProt O96017)
Chain of CHK2 (O96017 whole entry): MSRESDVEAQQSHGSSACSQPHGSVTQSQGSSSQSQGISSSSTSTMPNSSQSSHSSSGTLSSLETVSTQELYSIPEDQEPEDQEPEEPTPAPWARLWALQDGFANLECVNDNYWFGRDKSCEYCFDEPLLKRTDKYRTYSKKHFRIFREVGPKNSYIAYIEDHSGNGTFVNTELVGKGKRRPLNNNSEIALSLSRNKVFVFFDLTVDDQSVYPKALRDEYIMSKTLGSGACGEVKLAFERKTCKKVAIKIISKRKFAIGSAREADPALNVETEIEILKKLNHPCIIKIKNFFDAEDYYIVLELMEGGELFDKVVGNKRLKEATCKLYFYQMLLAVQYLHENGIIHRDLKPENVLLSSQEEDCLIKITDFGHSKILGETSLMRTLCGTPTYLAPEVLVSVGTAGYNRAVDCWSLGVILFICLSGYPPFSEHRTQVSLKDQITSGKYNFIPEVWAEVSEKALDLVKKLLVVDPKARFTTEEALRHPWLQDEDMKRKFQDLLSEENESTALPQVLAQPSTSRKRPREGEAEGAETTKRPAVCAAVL

Chain of FLT1 (P17948 whole entry): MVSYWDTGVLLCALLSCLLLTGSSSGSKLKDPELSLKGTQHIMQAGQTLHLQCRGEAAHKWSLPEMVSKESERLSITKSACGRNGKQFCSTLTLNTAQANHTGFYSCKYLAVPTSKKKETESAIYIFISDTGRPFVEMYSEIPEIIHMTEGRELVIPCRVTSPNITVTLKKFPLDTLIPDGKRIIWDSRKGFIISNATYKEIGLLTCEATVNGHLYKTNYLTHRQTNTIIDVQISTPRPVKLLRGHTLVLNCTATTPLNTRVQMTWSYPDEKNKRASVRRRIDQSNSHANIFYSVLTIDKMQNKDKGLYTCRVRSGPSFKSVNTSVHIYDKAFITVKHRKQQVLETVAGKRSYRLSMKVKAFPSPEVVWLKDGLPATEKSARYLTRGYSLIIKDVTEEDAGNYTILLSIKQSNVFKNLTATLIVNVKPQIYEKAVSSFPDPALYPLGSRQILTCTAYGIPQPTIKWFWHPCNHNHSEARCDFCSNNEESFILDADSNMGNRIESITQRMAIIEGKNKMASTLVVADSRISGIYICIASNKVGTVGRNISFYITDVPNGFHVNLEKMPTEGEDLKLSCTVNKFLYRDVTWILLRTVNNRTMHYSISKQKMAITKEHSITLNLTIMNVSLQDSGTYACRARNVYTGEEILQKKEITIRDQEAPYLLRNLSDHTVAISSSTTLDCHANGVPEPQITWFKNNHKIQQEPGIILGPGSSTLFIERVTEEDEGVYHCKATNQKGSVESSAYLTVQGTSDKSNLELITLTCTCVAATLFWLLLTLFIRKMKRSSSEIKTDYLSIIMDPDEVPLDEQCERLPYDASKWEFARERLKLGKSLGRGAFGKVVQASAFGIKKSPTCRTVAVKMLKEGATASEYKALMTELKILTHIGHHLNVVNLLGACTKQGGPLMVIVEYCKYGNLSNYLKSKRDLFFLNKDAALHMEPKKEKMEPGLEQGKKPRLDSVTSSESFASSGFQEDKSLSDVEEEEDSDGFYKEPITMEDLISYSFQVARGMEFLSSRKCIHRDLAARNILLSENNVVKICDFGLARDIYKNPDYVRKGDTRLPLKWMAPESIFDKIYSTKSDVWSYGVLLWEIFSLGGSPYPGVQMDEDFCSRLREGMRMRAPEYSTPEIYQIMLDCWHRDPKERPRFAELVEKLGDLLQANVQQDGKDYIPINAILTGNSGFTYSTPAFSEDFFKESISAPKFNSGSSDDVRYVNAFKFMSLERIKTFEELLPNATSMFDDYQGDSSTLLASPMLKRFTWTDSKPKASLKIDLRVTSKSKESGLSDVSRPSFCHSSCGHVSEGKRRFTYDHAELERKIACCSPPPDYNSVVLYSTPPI
Chain of NEK7 (Q8TDX7 whole entry): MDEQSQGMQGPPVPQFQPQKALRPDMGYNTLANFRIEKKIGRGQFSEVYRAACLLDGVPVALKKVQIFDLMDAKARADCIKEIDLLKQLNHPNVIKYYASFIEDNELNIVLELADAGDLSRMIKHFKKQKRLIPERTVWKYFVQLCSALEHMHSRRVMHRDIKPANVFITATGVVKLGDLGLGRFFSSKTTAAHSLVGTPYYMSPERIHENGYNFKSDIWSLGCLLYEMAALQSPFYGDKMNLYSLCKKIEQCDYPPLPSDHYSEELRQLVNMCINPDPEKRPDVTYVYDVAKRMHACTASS
Chain of EphA5 (P54756 whole entry): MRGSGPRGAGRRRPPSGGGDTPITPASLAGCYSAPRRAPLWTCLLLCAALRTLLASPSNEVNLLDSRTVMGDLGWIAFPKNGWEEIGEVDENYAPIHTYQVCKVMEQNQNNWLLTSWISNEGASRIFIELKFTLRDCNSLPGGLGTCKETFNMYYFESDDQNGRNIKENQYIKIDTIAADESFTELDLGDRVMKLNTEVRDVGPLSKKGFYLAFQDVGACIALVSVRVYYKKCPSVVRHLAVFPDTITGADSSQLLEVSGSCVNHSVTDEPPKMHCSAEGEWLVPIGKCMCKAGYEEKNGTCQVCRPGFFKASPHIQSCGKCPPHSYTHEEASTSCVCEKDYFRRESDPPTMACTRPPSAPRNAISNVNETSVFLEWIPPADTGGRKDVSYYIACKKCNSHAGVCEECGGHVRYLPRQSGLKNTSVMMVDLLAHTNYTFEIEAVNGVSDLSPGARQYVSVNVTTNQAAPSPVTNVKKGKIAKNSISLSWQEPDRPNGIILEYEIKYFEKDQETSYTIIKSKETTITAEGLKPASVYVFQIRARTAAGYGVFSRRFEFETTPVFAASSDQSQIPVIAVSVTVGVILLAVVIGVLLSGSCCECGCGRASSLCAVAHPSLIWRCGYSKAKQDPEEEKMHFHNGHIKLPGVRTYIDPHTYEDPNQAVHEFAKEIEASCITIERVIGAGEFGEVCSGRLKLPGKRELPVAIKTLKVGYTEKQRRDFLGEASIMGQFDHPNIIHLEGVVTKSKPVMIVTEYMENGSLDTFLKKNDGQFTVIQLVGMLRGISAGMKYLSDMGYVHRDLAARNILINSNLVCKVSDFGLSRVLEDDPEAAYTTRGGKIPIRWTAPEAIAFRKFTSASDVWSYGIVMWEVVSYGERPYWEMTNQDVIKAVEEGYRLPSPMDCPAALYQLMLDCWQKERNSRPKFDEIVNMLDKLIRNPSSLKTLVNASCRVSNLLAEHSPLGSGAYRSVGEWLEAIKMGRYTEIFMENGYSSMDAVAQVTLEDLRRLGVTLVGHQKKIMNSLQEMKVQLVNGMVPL
Chain of LOK (O94804 whole entry): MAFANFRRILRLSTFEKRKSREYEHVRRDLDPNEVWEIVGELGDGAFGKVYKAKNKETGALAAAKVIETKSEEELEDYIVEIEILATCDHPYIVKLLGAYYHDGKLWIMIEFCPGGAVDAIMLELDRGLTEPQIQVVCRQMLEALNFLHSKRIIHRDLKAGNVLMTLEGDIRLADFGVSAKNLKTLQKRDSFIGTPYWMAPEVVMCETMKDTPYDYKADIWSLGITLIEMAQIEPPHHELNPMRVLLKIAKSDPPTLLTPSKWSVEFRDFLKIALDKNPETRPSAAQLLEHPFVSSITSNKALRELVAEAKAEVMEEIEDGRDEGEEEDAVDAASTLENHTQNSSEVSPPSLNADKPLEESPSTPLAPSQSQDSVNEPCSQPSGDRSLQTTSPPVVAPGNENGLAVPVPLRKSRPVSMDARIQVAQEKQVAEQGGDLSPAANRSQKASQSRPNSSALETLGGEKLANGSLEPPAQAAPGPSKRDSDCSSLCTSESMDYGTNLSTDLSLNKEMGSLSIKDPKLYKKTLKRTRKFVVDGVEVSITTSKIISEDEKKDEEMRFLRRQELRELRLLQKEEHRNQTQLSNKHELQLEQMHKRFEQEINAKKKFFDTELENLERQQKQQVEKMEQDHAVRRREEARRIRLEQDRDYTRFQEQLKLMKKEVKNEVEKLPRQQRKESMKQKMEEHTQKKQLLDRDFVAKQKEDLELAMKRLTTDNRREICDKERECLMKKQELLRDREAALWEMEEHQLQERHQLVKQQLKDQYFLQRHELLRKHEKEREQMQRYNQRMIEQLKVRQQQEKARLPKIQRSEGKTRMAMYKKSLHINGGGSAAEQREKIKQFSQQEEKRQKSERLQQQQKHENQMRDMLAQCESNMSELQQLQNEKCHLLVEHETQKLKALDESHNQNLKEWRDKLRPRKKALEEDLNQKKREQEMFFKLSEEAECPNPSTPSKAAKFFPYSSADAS
Chain of CaMK1g (Q96NX5 whole entry): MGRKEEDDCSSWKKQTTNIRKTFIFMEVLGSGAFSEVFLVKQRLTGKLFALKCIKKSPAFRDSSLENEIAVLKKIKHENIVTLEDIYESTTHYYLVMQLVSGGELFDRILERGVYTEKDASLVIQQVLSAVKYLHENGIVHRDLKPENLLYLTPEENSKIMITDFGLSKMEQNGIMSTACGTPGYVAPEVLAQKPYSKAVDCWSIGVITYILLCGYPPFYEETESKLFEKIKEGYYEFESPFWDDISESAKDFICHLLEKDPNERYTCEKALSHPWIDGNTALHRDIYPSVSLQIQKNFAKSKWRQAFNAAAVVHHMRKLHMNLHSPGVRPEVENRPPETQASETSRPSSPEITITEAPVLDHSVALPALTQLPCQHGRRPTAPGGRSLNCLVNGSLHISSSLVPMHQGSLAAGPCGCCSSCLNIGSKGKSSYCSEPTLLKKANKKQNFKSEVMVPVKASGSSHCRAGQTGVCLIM

## Cc1cccc(-c2ccc(-c3cc4cnc(Nc5cc(C(F)(F)F)ccc5C)nc4n(CCCCN)c3=O)c(Cl)c2)n1 [compound 28, 8-(4-Aminobutyl)-6-(2-chloro-4-(6-methylpyridin-2-yl)phenyl)-2-((2-methyl-5-(trifluoromethyl)phenyl)amino)pyrido[2,3-d]pyrimidin-7(8H)-one]
[1]
  ΔTm 28: 7.8 °C
[2]
  ΔTm 28: -0.7 °C
[3]
  ΔTm 28: 0.2 °C
[4]
  ΔTm 28: 7.8 °C
[5]
  ΔTm 28: -0.7 °C
[6]
  ΔTm 28: 4.2 °C
[7]
  ΔTm 28: 0.0 °C
[8]
  ΔTm 28: -0.7 °C
[9]
  ΔTm 28: 8.4 °C
[10]
  ΔTm 28: 4.5 °C
[11]
  ΔTm 28: -1.0 °C
[12]
  ΔTm 28: 5.7 °C
[13]
  ΔTm 28: 2.4 °C
[14]
  ΔTm 28: 4.6 °C

## Cc1cccc(-c2ccc(-c3cc4cnc(Nc5ccc(CCCO)cc5)nc4n(CCCCN)c3=O)c(Cl)c2)n1 [compound 30, 8-(4-Aminobutyl)-6-(2-chloro-4-(6-methylpyridin-2-yl)phenyl)-2-((4-(3-hydroxypropyl)phenyl)amino)pyrido[2,3-d]pyrimidin-7(8H)-one]
[1]
  ΔTm 30: 4.3 °C
[2]
  ΔTm 30: -0.4 °C
[3]
  ΔTm 30: -1.8 °C
[4]
  ΔTm 30: 11.6 °C
[5]
  ΔTm 30: -0.2 °C
[6]
  ΔTm 30: 6.4 °C
[7]
  ΔTm 30: -0.2 °C
[8]
  ΔTm 30: -0.9 °C
[9]
  ΔTm 30: 12.3 °C
[10]
  ΔTm 30: 6.6 °C
[11]
  ΔTm 30: 4.4 °C
[12]
  ΔTm 30: 7.5 °C
[13]
  ΔTm 30: 6.7 °C
[14]
  ΔTm 30: 10.4 °C

## Cc1cccc(-c2ccc(-c3cc4cnc(Nc5ccc(C)c(O)c5)nc4n(CCCCN)c3=O)c(Cl)c2)n1 [compound 32, 8-(4-Aminobutyl)-6-(2-chloro-4-(6-methylpyridin-2-yl)phenyl)-2-((3-hydroxy-4-methylphenyl)amino)pyrido[2,3-d]pyrimidin-7(8H)-one]
[1]
  ΔTm 32: 5.6 °C
[2]
  ΔTm 32: -0.2 °C
[3]
  ΔTm 32: -0.4 °C
[4]
  ΔTm 32: 10.1 °C
[5]
  ΔTm 32: -0.2 °C
[6]
  ΔTm 32: 5.4 °C
[7]
  ΔTm 32: 0.1 °C
[8]
  ΔTm 32: -0.6 °C
[9]
  ΔTm 32: 12.2 °C
[10]
  ΔTm 32: 6.6 °C
[11]
  ΔTm 32: 4.0 °C
[12]
  ΔTm 32: 6.4 °C
[13]
  ΔTm 32: 6.4 °C
[14]
  ΔTm 32: 11.0 °C

## Cc1cccc(-c2ccc(-c3cc4cnc(NCCCN5CCCC5=O)nc4n(CCCCN)c3=O)c(Cl)c2)n1 [compound 27, MR30]
[1]
  ΔTm MR30 (27): 2.4 °C
[2]
  ΔTm MR30 (27): -0.6 °C
[3]
  ΔTm MR30 (27): -1.2 °C
[4]
  ΔTm MR30 (27): 6.2 °C
[5]
  ΔTm MR30 (27): 0.5 °C
[6]
  ΔTm MR30 (27): 1.7 °C
[7]
  ΔTm MR30 (27): -0.3 °C
[8]
  ΔTm MR30 (27): -0.4 °C
[9]
  ΔTm MR30 (27): 0.8 °C
[10]
  ΔTm MR30 (27): 2.8 °C
[11]
  ΔTm MR30 (27): -0.2 °C
[12]
  ΔTm MR30 (27): 3.6 °C
[13]
  ΔTm MR30 (27): 1.2 °C
[14]
  ΔTm MR30 (27): 2.5 °C

## Cc1cccc(-c2ccc(-c3cc4cnc(Nc5ccc(O)cc5)nc4n(CCCCN)c3=O)c(Cl)c2)n1 [compound 31, 8-(4-Aminobutyl)-6-(2-chloro-4-(6-methylpyridin-2-yl)phenyl)-2-((4-hydroxyphenyl)amino) pyrido[2,3-d]pyrimidin-7(8H)-one]
[1]
  ΔTm 31: 5.6 °C
[2]
  ΔTm 31: -0.4 °C
[3]
  ΔTm 31: -1.0 °C
[4]
  ΔTm 31: 10.8 °C
[5]
  ΔTm 31: -0.3 °C
[6]
  ΔTm 31: 5.1 °C
[7]
  ΔTm 31: -0.5 °C
[8]
  ΔTm 31: -1.6 °C
[9]
  ΔTm 31: 11.7 °C
[10]
  ΔTm 31: 6.2 °C
[11]
  ΔTm 31: 3.3 °C
[12]
  ΔTm 31: 5.5 °C
[13]
  ΔTm 31: 6.4 °C
[14]
  ΔTm 31: 11.2 °C

## Cc1cccc(-c2ccc(-c3cc4cnc(NCCCN5CCNCC5)nc4n(CCCCN)c3=O)c(Cl)c2)n1 [compound 29, 8-(4-Aminobutyl)-6-(2-chloro-4-(6-methylpyridin-2-yl)phenyl)-2-((3-(piperazin-1-yl)propyl)amino)pyrido[2,3-d]pyrimidin-7(8H)-one]
[1]
  ΔTm 29: 3.9 °C
[2]
  ΔTm 29: -0.4 °C
[3]
  ΔTm 29: -0.3 °C
[4]
  ΔTm 29: 5.1 °C
[5]
  ΔTm 29: 0.3 °C
[6]
  ΔTm 29: 4.1 °C
[7]
  ΔTm 29: 0.0 °C
[8]
  ΔTm 29: -0.2 °C
[9]
  ΔTm 29: 4.6 °C
[10]
  ΔTm 29: 2.7 °C
[11]
  ΔTm 29: -0.3 °C
[12]
  ΔTm 29: 5.0 °C
[13]
  ΔTm 29: 2.2 °C
[14]
  ΔTm 29: 2.4 °C
